Patent US5100879A, “Method of topically cleansing the human body” (K.K. Ueno Seiyaku Oyo Kenkyujo, priority 1987, dated 1992)

System: HTLV-III
Experiment: Anti-AIDS activity, infected cell rate of MT-4 cells infected with HTLV-III at the 6th day (Example 9)
Assay type: cell-based
Settings: for anti-AIDS virus activity, in words: Example 9
Experimental: To MT-4 cells (30×10^4 /ml) cultured in RPMI-1640 medium containing 10% bovine serum, was inoculated HTLV-III, and the suspension was incubated at 37° C. for 1 hour to cause the adsorption of the virus. The cell:virus ratio was 500:1. The cells were then washed, and cultured with or without various doses of the test substances (same as those of Example 1) at 37° C. under 5% CO2 for 3 days, after which cell growth, viability, and percentage of infected cells were recorded. The infected cells were distinguished from the uninfected cells by an indirect immuno-fluorescence method. Thus, the cultured cells were fixed with cold methanol on a slide glass, reacted with antibody to the HTLV-III-specific antigens, and further with the secondary antibody (having a fluororescent label). The results are shown in FIGS. 9-29, wherein, .gradient., .increment. and .quadrature. show the controls without virus, and show the infection experiments with HTLV-III. The cell growth is indicated in number of cells, the viability (%) in number of viable cells ×100/number of total cells, and the infected cell rate (%) in number of fluorescent-positive cells x 100/number of total cells.
In order to examine the correlation between the anti-AIDS virus activity and the molecular structure (especially, molecular weight and S-content or number of sulfate group in this case) of various test substances including those used in Examples 1-7, the anti-AIDS activities were evaluated for the various naturally occurring polysaccharides, polysaccharides having a sulfate group, mucopolysaccharides, mucopolysaccharide sulfate, and mucopolysaccharide polysulfate. Further, similar experiments were carried out with various other sulfates which were synthetically obtained. The experimental procedures employed are identical to that in the preceding experiments. The cultured MT-4 cells were infected with HTLV-III and the inhibitory effects of various test substances on the infected cell rate (number of fluorescent cell×100/ total cell, %) were determined at the 6th day.

[1] = 10 μg/ml, 6th day, control without test substance 100%
[2] = 100 μg/ml, 6th day, control without test substance 100%
[3] = 10 μg/ml, 6th day, control without test substance 100%, 8640 min
[4] = 100 μg/ml, 6th day, control without test substance 100%, 8640 min
[5] = 1000 μg/ml, 6th day, control without test substance 100%

Row | Compound | anti-AIDS virus activity, in words | Infected cell (%) [1] [%] | Infected cell (%) [2] [%] | also measured
1 | O=C[C@H](O)[C@@H](O)[C@H](O)[C@H](O)COS(=O)(=O)O [Glucose-6-sulfate, reference compound] | – | – | – | activity at 10 µg/mL (Human immunodeficiency virus 1, MT4, 144 h, 10 μg/ml, 6th day, control without test substance 100%): 100%; activity at 100 µg/mL (Human immunodeficiency virus 1, MT4, 144 h, 100 μg/ml, 6th day, control without test substance 100%): 100%; activity at 1000 µg/mL (Human immunodeficiency virus 1, MT4, 144 h, 1000 μg/ml, 6th day, control without test substance 100%): 100%
2 | OC[C@H]1O[C@H](OC[C@H]2O[C@H](O[C@]3(CO)O[C@H](CO)[C@@H](O)[C@@H]3O)[C@H](O)[C@@H](O)[C@@H]2O)[C@H](O)[C@@H](O)[C@H]1O [raffinose, reference compound] | None | – | – | –
3 | Agarose [reference compound] | – | 100 | 100 | –
4 | Alginic acid [reference compound] | – | 100 | 100 | –
5 | Alginic acid sulfate | particularly strong | 7 | 4 | –
6 | Chitin [reference compound] | – | 100 | 100 | –
7 | Chitin sulfate | – | 100 | 81 | –
8 | Chitosan [reference compound] | – | 100 | 100 | –
9 | Chitosan sulfate | particularly strong | 1 | 1 | –
10 | Chondroitin [reference compound] | – | 100 | 100 | –
11 | Chondroitin-4-sulfate [reference compound] | – | 100 | 100 | –
12 | Chondroitin-4-sulfate polysulfate | particularly strong | 2 | 1 | –
13 | Chondroitin-6-sulfate [reference compound] | – | 100 | 100 | –
14 | Chondroitin-6-sulfate polysulfate | particularly strong | 2 | 1 | –
15 | Dermatan sulfate [reference compound] | – | 100 | 80 | –
16 | Dextran [Dextran 9,000, reference compound] | – | 100 | 100 | –
17 | Dextran sulfate [Dextran sulfate 3,500] | – | – | – | Infected cell (%) [3]: 100%; Infected cell (%) [4]: 82%; Infected cell (%) [5]: 1%
18 | Dextran sulfate [Dextran sulfate 8,000] | – | – | – | Infected cell (%) [3]: 25%; Infected cell (%) [4]: 0%
19 | Dextran sulfate [Dextran sulfate 500,000] | – | – | – | Infected cell (%) [3]: 20%; Infected cell (%) [4]: 0%
20 | Glucose-polysulfate [reference compound] | – | 100 | 100 | Infected cell (%) [5]: 100%
21 | Heparitin sulfate [reference compound] | – | 100 | 90 | –
22 | Hyaluronic acid [reference compound] | – | 100 | 100 | –
23 | Hyaluronic acid sulfate | – | 100 | 70 | –
24 | Keratan sulfate [reference compound] | – | 100 | 80 | –
25 | N-acetylglucosamine polysulfate [reference compound] | – | 100 | 100 | Infected cell (%) [5]: 100%
26 | colominic acid [reference compound] | None | – | – | –
27 | dextran sulfate | particularly strong | – | – | –
28 | inulin [reference compound] | None | – | – | –
29 | methylcellulose [reference compound] | None | – | – | –
30 | pectin [reference compound] | None | – | – | –
